# Measurements as given in US20260226089A1, “METHOD FOR CONTROLLING IMPURITIES IN L-ARABINOSE AND USE THEREOF” (THOMSON BIOTECH (XIAMEN) PTE. LTD., priority 2023, published 2026).
# Tests used:
# constipation model rats = assay: Therapeutic effect on constipation model rats (modeling with compound diphenoxylate); format: in vivo, rat; conditions: n = 8; for Time for first dark stools min: first administration with 5% activated carbon; for Time for first dark stools min / Small intestine propulsion rate %: x ± sd; for Small intestine propulsion rate %: gavage once daily; for Water content of stools %: stools collected on day 7, x ± sd
# Source text: • Modeling procedure: modeling with compound diphenoxylate. • Experimental drugs and reagents: activated carbon (5%); a 0.4 g/mL aqueous solution prepared from an arabinose drug. • Positive control: PEG (Shutaiqing). SPF-grade rats (Zhejiang Vital River Laboratory Animal Technology Co., Ltd.).
# Except for the normal group, the successfully modeled rats were randomly divided into 5 groups, including a model group, a low dose group, a medium dose group, a high dose group, and a positive control group, 8 animals per group. Each rat was housed individually in separate cages, and operations were conducted fixedly at 10:00-12:00 every day. The normal group and the model group were gavaged with 0.2 mL of purified water. The positive control group was gavaged with 0.133 mL of a mosapride solution, and the low dose group, the medium dose group, and the high dose group were gavaged with 0.01 mL, 0.02 mL, and 0.04 mL of the test drug, respectively, with the volume adjusted to 0.2 mL using purified water. The rats had free access to food and water. The administration was performed for 7 consecutive days (times).
# For the first administration, the drug with 5% activated carbon (based on 0.2 g×5%) added was intragastrically administered to the treatment group, and 0.2 mL of purified water with activated carbon added was intragastrically administered to the normal group and the model group. The time for the first dark stools was recorded.
# The rats were intragastrically administered once daily. On day 7 after the continuous administration, the stools were collected using a sterile centrifuge tube and stored at −100° C. The collected stools were dried at 105° C. to a constant weight, and the water content of the stools was calculated according to the formula: water content of stools=(1−mass after drying/mass before drying)×100%.
# The rats were intragastrically administered once daily for 14 days and then fasted for 12 h. 1 h after the last administration, each group of animals was gavaged with 0.15 mL of 5% activated carbon, and 30 min later, the rats were anesthetized with an intraperitoneal injection of 10% chloral hydrate. After anesthesia was completed, the abdominal operation was immediately performed. The intestinal canal from pylorus to ileocecal junction was cut off and placed on a glass plate. The length of the intestinal tract traversed by the ink and the total length of the intestinal tract were measured. The intestinal propulsion rate was the ratio of the two. The total length from pylorus to ileocecal junction and the distance from pylorus to the front of the carbon ink were measured, and the carbon ink propulsion percentage was calculated. Intestinal propulsion rate=distance from front of carbon ink to pylorus/full length of small intestine×100%.
# SPF-grade rats = assay: Rat bowel preparation experiment (bowel cleansing effect); format: in vivo
# Source text: Experimental materials: L-arabinose, selected from the L-arabinose crystallization sample with batch No. 1221 in the example, prepared into a 0.4 g/mL solution with purified water; PEG (Shutaiqing), prepared into a 0.521 g/mL PEG solution with purified water; SPF-grade rats (Zhejiang Vital River Laboratory Animal Technology Co., Ltd.). • 5.1. Experimental animals and feeding thereof: SPF (specific pathogen free)-grade rats (200±10 g), 6 weeks old; normal feed was D12450-B feed: 67.35 wt % carbohydrates, 19.2 wt % crude protein, and 4.3 wt % fat. The temperature of the room was kept at 24° C. to 26° C. with humidity at 40% to 60%. • 5.2. Experimental method and procedures:
# The SPF-grade rats were randomly divided into a blank control group, a positive control group, and a treatment group, 10 animals per group, half being male and half female. Administration method: Animals in each group were fasted (water was accessible) starting at 22:00 the night before experiment, were each given ½ the calculated amount of drug by intragastrical administration at 7:00 and 9:00 on the day of experiment, were each given 2.0 mL of purified water at 12:00 and 13:00, and were dissected 3.5 h after the last administration.
smiles,measurement,setting,value
"CCOc1cc(N)c(Cl)cc1C(=O)NCC1CN(Cc2ccc(F)cc2)CCO1 (stereo not drawn) [Positive control, reference compound]",Time for first dark stools min,constipation model rats; Positive control 2.0 mg kg/d,67 ± 8.8 min
same,Small intestine propulsion rate %,constipation model rats; Positive control 2.0 mg kg/d,82% ± 4.4
same,Water content of stools %,constipation model rats; Positive control 2.0 mg kg/d,57% ± 0.9
"O=C[C@H](O)[C@@H](O)[C@@H](O)CO [L-arabinose, L-Arabinose]",Dosage relative to that administered to the positive control group to achieve the same effect,SPF-grade rats; 9 g/kg L-arabinose vs 21.9 g/kg PEG,41%
same,Stools observed before the dissection,"SPF-grade rats; L-arabinose batch No. 1221, 9 g/kg (22.5 mL/kg) intragastric in 2 doses, fasted rats",Watery and loose stools
same,Residue in the rectum and colon after the dissection,"SPF-grade rats; L-arabinose batch No. 1221, 9 g/kg intragastric in 2 doses, dissected 3.5 h after last administration",no residue was left in the rectum and colon
same,Time for first dark stools min,constipation model rats; High dose 0.80 g kg/d,63 ± 5.7 min
same,Small intestine propulsion rate %,constipation model rats; High dose 0.80 g kg/d,83% ± 2.8
same,Water content of stools %,constipation model rats; High dose 0.80 g kg/d,61% ± 2.4
same,Time for first dark stools min,constipation model rats; Low dose 0.20 g kg/d,76 ± 8.5 min
same,Small intestine propulsion rate %,constipation model rats; Low dose 0.20 g kg/d,75% ± 3.1
same,Water content of stools %,constipation model rats; Low dose 0.20 g kg/d,54% ± 1.8
same,Time for first dark stools min,constipation model rats; Medium dose 0.40 g kg/d,64 ± 6.2 min
same,Small intestine propulsion rate %,constipation model rats; Medium dose 0.40 g kg/d,80% ± 2.7
same,Water content of stools %,constipation model rats; Medium dose 0.40 g kg/d,59% ± 2.7
